Nine cell lines from the supplement of paper PMC10307832 can be followed below.

Holding throughout (assay): relative viability (nuclei count vs DMSO), 5 days (fraction); higher = more cells survive
Compound in the experiment “Tosedostat + Trametinib”: CC(C)C[C@@H](C(=O)N[C@H](C(=O)OC1CCCC1)c1ccccc1)[C@H](O)C(=O)NO [Tosedostat] + CC(=O)Nc1cccc(-n2c(=O)n(C3CC3)c(=O)c3c(Nc4ccc(I)cc4F)n(C)c(=O)c(C)c32)c1 [Trametinib] (partner 0.02 µM)
The method in brief:
(§1)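 A single step with final 0.05% Triton X-100, 1% formaldehyde and 1 ug/ml Hoechst fixed the cells and stained nuclei 5 days after treatment. Lung cancer cell lines in 1536-well plates had been treated by pin tool the day after seeding with one drug alone or a fixed anchor-drug dose plus five library-drug doses (not always all listed) in √10 steps, and nuclei were counted on 4× images. Relative viability is the ratio of nuclei in treated wells to nuclei in vehicle wells, taken as the median of duplicate plates.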

Compound in the experiment “Tosedostat + Phenformin”: CC(C)C[C@@H](C(=O)N[C@H](C(=O)OC1CCCC1)c1ccccc1)[C@H](O)C(=O)NO [Tosedostat] + N=C(N)NC(=N)NCCc1ccccc1 [Phenformin] (partner 250 µM)
An outline of the steps: as §1

Compound in experiment [1]: CC1=NN=C(O1)C2=NN=C(C=C2)N3CCC(CC3)OC4=C(C=CC(=C4)F)Cl + O=C(CCCCCCC(=O)Nc1ccccc1)NO [Vorinostat] (partner 1 µM)
An outline of the steps: as §1

Compound in the experiment “Tosedostat + Alpelisib”: CC(C)C[C@@H](C(=O)N[C@H](C(=O)OC1CCCC1)c1ccccc1)[C@H](O)C(=O)NO [Tosedostat] + Cc1nc(NC(=O)N2CCC[C@H]2C(N)=O)sc1-c1ccnc(C(C)(C)C(F)(F)F)c1 [Alpelisib] (partner 2 µM)
An outline of the steps:
as §1

In the case of COR-L 105, the relative viability with Tosedostat + Trametinib (first compound 0.02 µM) worked out at 0.493; in the experiment with Tosedostat + Trametinib (first compound 0.06325 µM), 0.431; with Tosedostat + Trametinib (first compound 0.2 µM) it was 0.422; in the experiment with Tosedostat + Trametinib (first compound 0.6325 µM), 0.476; with Tosedostat + Trametinib (first compound 2 µM) it was 0.369; with Tosedostat + Phenformin (first compound 0.02 µM) it was 0.517. Also, the relative viability with Tosedostat + Phenformin (first compound 0.06325 µM) worked out at 0.465; in the experiment with Tosedostat + Phenformin (first compound 0.2 µM), 0.447; with Tosedostat + Phenformin (first compound 0.6325 µM), 0.399; in the experiment with Tosedostat + Phenformin (first compound 2 µM), 0.363; in experiment [1] (first compound 0.253 µM), 0.797; in experiment [1] (first compound 0.8 µM), 0.919. For the same cell line, the relative viability was 0.794 in experiment [1] (first compound 2.53 µM); 0.8 in experiment [1] (first compound 8 µM); 0.904 with Tosedostat + Alpelisib (first compound 0.02 µM); 0.849 with Tosedostat + Alpelisib (first compound 0.06325 µM); 1.17 with Tosedostat + Alpelisib (first compound 0.2 µM); 0.901 with Tosedostat + Alpelisib (first compound 0.6325 µM). For the same cell line, the relative viability in the experiment with Tosedostat + Alpelisib (first compound 2 µM) amounted to 0.753.

Take Calu-6: the relative viability was determined as 1.18 with Tosedostat + Alpelisib (first compound 0.02 µM); 0.883 in the experiment with Tosedostat + Alpelisib (first compound 0.06325 µM); 0.91 with Tosedostat + Alpelisib (first compound 0.2 µM); 0.689 with Tosedostat + Alpelisib (first compound 0.6325 µM); 0.597 in the experiment with Tosedostat + Alpelisib (first compound 2 µM).

Regarding ChaGo-K-1, the relative viability in the experiment with Tosedostat + Trametinib (first compound 0.02 µM) was determined as 0.903; in the experiment with Tosedostat + Trametinib (first compound 0.06325 µM) it was 0.862; with Tosedostat + Trametinib (first compound 0.2 µM), 0.895; with Tosedostat + Trametinib (first compound 0.6325 µM), 0.867; with Tosedostat + Trametinib (first compound 2 µM), 0.645; with Tosedostat + Phenformin (first compound 0.02 µM) it was 0.435. The relative viability stood at 0.522 with Tosedostat + Phenformin (first compound 0.06325 µM); 0.487 with Tosedostat + Phenformin (first compound 0.2 µM); 0.412 with Tosedostat + Phenformin (first compound 0.6325 µM); 0.359 with Tosedostat + Phenformin (first compound 2 µM); 0.546 in experiment [1] (first compound 0.253 µM); 0.444 in experiment [1] (first compound 0.8 µM). For the same cell line, the relative viability in experiment [1] (first compound 2.53 µM) amounted to 0.55; in experiment [1] (first compound 8 µM), 0.448.

Consider EBC-1, for which the relative viability in the experiment with Tosedostat + Alpelisib (first compound 0.02 µM) came out at 0.771; with Tosedostat + Alpelisib (first compound 0.06325 µM) it was 0.87; with Tosedostat + Alpelisib (first compound 0.2 µM), 0.711; with Tosedostat + Alpelisib (first compound 0.6325 µM), 0.552; with Tosedostat + Alpelisib (first compound 2 µM) it was 0.541.

On to EKVX, for which the relative viability with Tosedostat + Trametinib (first compound 0.02 µM) amounted to 0.229; with Tosedostat + Trametinib (first compound 0.06325 µM), 0.338; with Tosedostat + Trametinib (first compound 0.2 µM), 0.433; in the experiment with Tosedostat + Trametinib (first compound 0.6325 µM), 0.373; in the experiment with Tosedostat + Trametinib (first compound 2 µM), 0.292; with Tosedostat + Phenformin (first compound 0.02 µM), 0.216. The relative viability came to 0.236 with Tosedostat + Phenformin (first compound 0.06325 µM); 0.228 with Tosedostat + Phenformin (first compound 0.2 µM); 0.202 with Tosedostat + Phenformin (first compound 0.6325 µM); 0.192 with Tosedostat + Phenformin (first compound 2 µM); 0.439 in experiment [1] (first compound 0.253 µM); 0.381 in experiment [1] (first compound 0.8 µM). Also, the relative viability amounted to 0.442 in experiment [1] (first compound 2.53 µM); 0.463 in experiment [1] (first compound 8 µM); 0.868 in the experiment with Tosedostat + Alpelisib (first compound 0.02 µM); 0.86 with Tosedostat + Alpelisib (first compound 0.06325 µM); 0.835 with Tosedostat + Alpelisib (first compound 0.2 µM); 0.838 with Tosedostat + Alpelisib (first compound 0.6325 µM). Besides, in the experiment with Tosedostat + Alpelisib (first compound 2 µM), the relative viability turned out to be 0.87.

With EMC-BAC-2, the relative viability in the experiment with Tosedostat + Trametinib (first compound 0.02 µM) amounted to 0.942; with Tosedostat + Trametinib (first compound 0.06325 µM), 0.849; in the experiment with Tosedostat + Trametinib (first compound 0.2 µM), 0.83; with Tosedostat + Trametinib (first compound 0.6325 µM), 0.727; with Tosedostat + Trametinib (first compound 2 µM), 0.675; with Tosedostat + Phenformin (first compound 0.02 µM), 0.495. Besides, the relative viability with Tosedostat + Phenformin (first compound 0.06325 µM) amounted to 0.508; in the experiment with Tosedostat + Phenformin (first compound 0.2 µM), 0.552; in the experiment with Tosedostat + Phenformin (first compound 0.6325 µM) it was 0.473; with Tosedostat + Phenformin (first compound 2 µM) it was 0.442; in experiment [1] (first compound 0.253 µM) it was 0.512; in experiment [1] (first compound 0.8 µM) it was 0.426. In addition, the relative viability in experiment [1] (first compound 2.53 µM) was 0.446; in experiment [1] (first compound 8 µM), 0.239; with Tosedostat + Alpelisib (first compound 0.02 µM), 0.722; in the experiment with Tosedostat + Alpelisib (first compound 0.06325 µM), 0.725; with Tosedostat + Alpelisib (first compound 0.2 µM), 0.73; with Tosedostat + Alpelisib (first compound 0.6325 µM), 0.737. Besides, the relative viability in the experiment with Tosedostat + Alpelisib (first compound 2 µM) is 0.682.

In the case of EPLC-272H, the relative viability is 0.29 in the experiment with Tosedostat + Trametinib (first compound 0.02 µM); 0.296 with Tosedostat + Trametinib (first compound 0.06325 µM); 0.305 with Tosedostat + Trametinib (first compound 0.2 µM); 0.324 in the experiment with Tosedostat + Trametinib (first compound 0.6325 µM); 0.25 in the experiment with Tosedostat + Trametinib (first compound 2 µM); 0.288 with Tosedostat + Phenformin (first compound 0.02 µM). The relative viability with Tosedostat + Phenformin (first compound 0.06325 µM) worked out at 0.299; in the experiment with Tosedostat + Phenformin (first compound 0.2 µM), 0.259; with Tosedostat + Phenformin (first compound 0.6325 µM), 0.239; in the experiment with Tosedostat + Phenformin (first compound 2 µM) it was 0.189; in experiment [1] (first compound 0.253 µM), 0.352; in experiment [1] (first compound 0.8 µM), 0.529. The relative viability was determined as 0.313 in experiment [1] (first compound 2.53 µM); 0.387 in experiment [1] (first compound 8 µM); 0.777 with Tosedostat + Alpelisib (first compound 0.02 µM); 0.999 in the experiment with Tosedostat + Alpelisib (first compound 0.06325 µM); 0.719 with Tosedostat + Alpelisib (first compound 0.2 µM); 0.747 with Tosedostat + Alpelisib (first compound 0.6325 µM). The relative viability in the experiment with Tosedostat + Alpelisib (first compound 2 µM) turned out to be 0.505.

Regarding H3255, the relative viability with Tosedostat + Trametinib (first compound 0.02 µM) is 0.61; in the experiment with Tosedostat + Trametinib (first compound 0.06325 µM) it was 0.582; with Tosedostat + Trametinib (first compound 0.2 µM), 0.528; with Tosedostat + Trametinib (first compound 0.6325 µM), 0.608; in the experiment with Tosedostat + Trametinib (first compound 2 µM) it was 0.599; in the experiment with Tosedostat + Phenformin (first compound 0.02 µM) it was 0.361. In addition, the relative viability with Tosedostat + Phenformin (first compound 0.06325 µM) came out at 0.369; with Tosedostat + Phenformin (first compound 0.2 µM), 0.386; with Tosedostat + Phenformin (first compound 0.6325 µM), 0.407; with Tosedostat + Phenformin (first compound 2 µM), 0.402; in experiment [1] (first compound 0.253 µM), 0.581; in experiment [1] (first compound 0.8 µM), 0.597. Besides, the relative viability in experiment [1] (first compound 2.53 µM) is 0.533; in experiment [1] (first compound 8 µM), 0.557; in the experiment with Tosedostat + Alpelisib (first compound 0.02 µM) it was 0.666; with Tosedostat + Alpelisib (first compound 0.06325 µM), 0.642; with Tosedostat + Alpelisib (first compound 0.2 µM), 0.589; in the experiment with Tosedostat + Alpelisib (first compound 0.6325 µM) it was 0.568. For the same cell line, the relative viability in the experiment with Tosedostat + Alpelisib (first compound 2 µM) was 0.663.

Regarding HARA, the relative viability with Tosedostat + Trametinib (first compound 0.02 µM) came out at 0.85; with Tosedostat + Trametinib (first compound 0.06325 µM), 0.636; with Tosedostat + Trametinib (first compound 0.2 µM), 0.91; with Tosedostat + Trametinib (first compound 0.6325 µM), 0.745; in the experiment with Tosedostat + Trametinib (first compound 2 µM) it was 0.631; in the experiment with Tosedostat + Phenformin (first compound 0.02 µM), 0.505. In addition, the relative viability amounted to 0.383 with Tosedostat + Phenformin (first compound 0.06325 µM); 0.433 in the experiment with Tosedostat + Phenformin (first compound 0.2 µM); 0.326 in the experiment with Tosedostat + Phenformin (first compound 0.6325 µM); 0.35 in the experiment with Tosedostat + Phenformin (first compound 2 µM); 0.476 in experiment [1] (first compound 0.253 µM); 0.345 in experiment [1] (first compound 0.8 µM). Also, the relative viability in experiment [1] (first compound 2.53 µM) amounted to 0.499; in experiment [1] (first compound 8 µM), 0.432; in the experiment with Tosedostat + Alpelisib (first compound 0.02 µM), 0.887; with Tosedostat + Alpelisib (first compound 0.06325 µM) it was 0.839; with Tosedostat + Alpelisib (first compound 0.2 µM), 0.875; in the experiment with Tosedostat + Alpelisib (first compound 0.6325 µM), 0.716. The relative viability in the experiment with Tosedostat + Alpelisib (first compound 2 µM) was 0.74.
